Experimental data published in patent publication US20030186434A1, “Method of forming vertebrate pancreas in vitro” (priority 2002, published 2003).

Tested on: blastopore upper lip of early gastrula of a Xenopus
Assay: Tissue differentiation of blastopore upper lip cultured continuously in retinoic acid solution for 10 days
Format: cell-based
Conditions: for Atypical epidermis differentiated, specimens (%) / Cartilage differentiated, specimens (%) / Cement gland differentiated, specimens (%) / Coelomic epithelium differentiated, specimens (%) / Ear vesicle differentiated, specimens (%) / Epidermis differentiated, specimens (%) / Eye or its fragments differentiated, specimens (%) / Gastric gland differentiated, specimens (%) / Hemocyte differentiated, specimens (%) / Intestinal epithelium differentiated, specimens (%) / Mesenchyme differentiated, specimens (%) / Muscle differentiated, specimens (%) / Neural tissue differentiated, specimens (%) / Notochord differentiated, specimens (%) / Pancreas differentiated, specimens (%) / Pharyngeal epithelium differentiated, specimens (%) / Pronephros differentiated, specimens (%) / Yolk-rich cell differentiated, specimens (%): continuous 10 days

## CC1=C(/C=C/C(C)=C/C=C/C(C)=C/C(=O)O)C(C)(C)CCC1 [Retinoic acid, retinoic acid]
10^−4 M, continuous treatment
  survival of explants while being cultured: all the explants died
10^−5 M, 17 specimens
  Atypical epidermis differentiated, specimens (%): 0 (0)
  Cartilage differentiated, specimens (%): 0 (0)
  Cement gland differentiated, specimens (%): 0 (0)
  Coelomic epithelium differentiated, specimens (%): 2 (12)
  Ear vesicle differentiated, specimens (%): 0 (0)
  Epidermis differentiated, specimens (%): 7 (41)
  Eye or its fragments differentiated, specimens (%): 0 (0)
  Gastric gland differentiated, specimens (%): 0 (0)
  Hemocyte differentiated, specimens (%): 0 (0)
  Intestinal epithelium differentiated, specimens (%): 8 (47)
  Mesenchyme differentiated, specimens (%): 8 (47)
  Muscle differentiated, specimens (%): 0 (0)
  Neural tissue differentiated, specimens (%): 0 (0)
  Notochord differentiated, specimens (%): 14 (82)
  Pancreas differentiated, specimens (%): 2 (12)
  Pharyngeal epithelium differentiated, specimens (%): 5 (29)
  Pronephros differentiated, specimens (%): 0 (0)
  Yolk-rich cell differentiated, specimens (%): 15 (88)
10^−6 M, 16 specimens
  Atypical epidermis differentiated, specimens (%): 0 (0)
  Cartilage differentiated, specimens (%): 0 (0)
  Cement gland differentiated, specimens (%): 0 (0)
  Coelomic epithelium differentiated, specimens (%): 2 (13)
  Ear vesicle differentiated, specimens (%): 0 (0)
  Epidermis differentiated, specimens (%): 1 (6)
  Eye or its fragments differentiated, specimens (%): 0 (0)
  Gastric gland differentiated, specimens (%): 2 (13)
  Hemocyte differentiated, specimens (%): 0 (0)
  Intestinal epithelium differentiated, specimens (%): 14 (88)
  Mesenchyme differentiated, specimens (%): 13 (81)
  Muscle differentiated, specimens (%): 3 (19)
  Neural tissue differentiated, specimens (%): 0 (0)
  Notochord differentiated, specimens (%): 14 (88)
  Pancreas differentiated, specimens (%): 1 (6)
  Pharyngeal epithelium differentiated, specimens (%): 3 (19)
  Pronephros differentiated, specimens (%): 0 (0)
  Yolk-rich cell differentiated, specimens (%): 14 (88)
10^−7 M, 15 specimens
  Atypical epidermis differentiated, specimens (%): 0 (0)
  Cartilage differentiated, specimens (%): 0 (0)
  Cement gland differentiated, specimens (%): 0 (0)
  Coelomic epithelium differentiated, specimens (%): 9 (60)
  Ear vesicle differentiated, specimens (%): 0 (0)
  Epidermis differentiated, specimens (%): 8 (53)
  Eye or its fragments differentiated, specimens (%): 0 (0)
  Gastric gland differentiated, specimens (%): 3 (20)
  Hemocyte differentiated, specimens (%): 0 (0)
  Intestinal epithelium differentiated, specimens (%): 5 (33)
  Mesenchyme differentiated, specimens (%): 9 (60)
  Muscle differentiated, specimens (%): 4 (27)
  Neural tissue differentiated, specimens (%): 2 (13)
  Notochord differentiated, specimens (%): 14 (93)
  Pancreas differentiated, specimens (%): 1 (7)
  Pharyngeal epithelium differentiated, specimens (%): 9 (60)
  Pronephros differentiated, specimens (%): 1 (7)
  Yolk-rich cell differentiated, specimens (%): 13 (87)
10^−8 M, 20 specimens
  Atypical epidermis differentiated, specimens (%): 0 (0)
  Cartilage differentiated, specimens (%): 9 (45)
  Cement gland differentiated, specimens (%): 0 (0)
  Coelomic epithelium differentiated, specimens (%): 6 (30)
  Ear vesicle differentiated, specimens (%): 0 (0)
  Epidermis differentiated, specimens (%): 19 (95)
  Eye or its fragments differentiated, specimens (%): 0 (0)
  Gastric gland differentiated, specimens (%): 0 (0)
  Hemocyte differentiated, specimens (%): 0 (0)
  Intestinal epithelium differentiated, specimens (%): 2 (10)
  Mesenchyme differentiated, specimens (%): 19 (95)
  Muscle differentiated, specimens (%): 12 (60)
  Neural tissue differentiated, specimens (%): 7 (35)
  Notochord differentiated, specimens (%): 17 (85)
  Pancreas differentiated, specimens (%): 1 (5)
  Pharyngeal epithelium differentiated, specimens (%): 12 (60)
  Pronephros differentiated, specimens (%): 0 (0)
  Yolk-rich cell differentiated, specimens (%): 9 (45)
10^−9 M, 11 specimens
  Atypical epidermis differentiated, specimens (%): 0 (0)
  Cartilage differentiated, specimens (%): 5 (45)
  Cement gland differentiated, specimens (%): 0 (0)
  Coelomic epithelium differentiated, specimens (%): 5 (45)
  Ear vesicle differentiated, specimens (%): 0 (0)
